From PMC9687990, “Identification, Characterization, and Expression of a β-Galactosidase from Arion Species (Mollusca)” (Biomolecules, 2022) come the findings set out here.

For series [1], the target named is T1, recombinant β-galactosidase from A. vulgaris (β-gal) (Arion vulgaris, UniProt A0A0B7AQJ9).
T1 construct: gene ORF136304
T1 sequence (A0A0B7AQJ9 1-661): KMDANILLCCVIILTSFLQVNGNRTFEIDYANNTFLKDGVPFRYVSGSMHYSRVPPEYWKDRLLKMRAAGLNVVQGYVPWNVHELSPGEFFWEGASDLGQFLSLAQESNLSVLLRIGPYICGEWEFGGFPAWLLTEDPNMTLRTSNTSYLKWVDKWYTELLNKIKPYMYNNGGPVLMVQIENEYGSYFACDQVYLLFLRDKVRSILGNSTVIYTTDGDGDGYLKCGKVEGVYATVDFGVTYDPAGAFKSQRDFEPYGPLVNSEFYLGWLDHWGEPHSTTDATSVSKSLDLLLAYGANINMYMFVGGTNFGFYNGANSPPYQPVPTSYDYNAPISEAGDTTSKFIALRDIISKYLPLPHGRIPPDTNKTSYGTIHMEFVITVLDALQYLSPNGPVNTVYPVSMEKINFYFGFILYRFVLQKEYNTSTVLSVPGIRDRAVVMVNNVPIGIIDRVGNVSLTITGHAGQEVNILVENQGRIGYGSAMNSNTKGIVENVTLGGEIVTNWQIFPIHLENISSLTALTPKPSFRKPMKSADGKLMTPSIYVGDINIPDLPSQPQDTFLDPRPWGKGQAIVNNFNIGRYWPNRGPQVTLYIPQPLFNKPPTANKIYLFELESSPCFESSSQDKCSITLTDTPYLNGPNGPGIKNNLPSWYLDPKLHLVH
Kind of series: inhibition of pNP-β-Gal hydrolysis, colorimetric […] nm. The class given is biochemical. As to conditions: pNP-β-Gal substrate, pH 4.5, 37 °C, 2 h; 12 mM galactose; product inhibition.

Series [2] deals with T2, native β-galactosidase from A. lusitanicus.
T2 construct: gene β-Gal
Kind of series: colorimetric p-nitrophenol release, […] nm. The conditions noted are these: pH 4.5 (Na citrate), 37 °C, 2 h; 0.2-12.5 mM substrate. The class given is biochemical, Arion vulgaris.

Substrate in the series “purified protein”: O=[N+]([O-])c1ccc(O[C@@H]2O[C@H](CO)[C@H](O)[C@H](O)[C@H]2O)cc1
Kind of series: purified protein. The conditions noted are these: pH 4.5 (Na citrate), 37 °C, 2 h, 0.2-12.5 mM substrate.

Take `OC[C@H]1OC(O)[C@H](O)[C@@H](O)[C@H]1O` (stereo partly drawn) [galactose]: the “% reduction of activity at 12 mM” value in series [1] is given as ~ 40%.

Broadly, the Km is the substrate concentration at which the rate is half of its maximum. Turning to `O=[N+]([O-])c1ccc(O[C@@H]2O[C@H](CO)[C@H](O)[C@H](O)[C@H]2O)cc1` [pNP-β-Gal], in series [2], the Michaelis-Menten constant (Km) stood at 8.3 mM.

B1: recombinant β-galactosidase from A. vulgaris (β-gal) (Arion vulgaris) (protein)
chain: T1 sequence (A0A0B7AQJ9 1-661)
In the case of B1, the Km in “purified protein” is given as 3.2 mM.
